Our source for the IC50 values is patent US8431596B2 (Cancer Research Technology Limited, priority 2007, dated 2013).

pIC50: −log10 of the molar value.

This test concerns the target T1, AXL (human catalytic domain) (Homo sapiens, UniProt P30530).
T1 construct: purchased Upstate Ltd. 14-512
T1 sequence (P30530 473-894): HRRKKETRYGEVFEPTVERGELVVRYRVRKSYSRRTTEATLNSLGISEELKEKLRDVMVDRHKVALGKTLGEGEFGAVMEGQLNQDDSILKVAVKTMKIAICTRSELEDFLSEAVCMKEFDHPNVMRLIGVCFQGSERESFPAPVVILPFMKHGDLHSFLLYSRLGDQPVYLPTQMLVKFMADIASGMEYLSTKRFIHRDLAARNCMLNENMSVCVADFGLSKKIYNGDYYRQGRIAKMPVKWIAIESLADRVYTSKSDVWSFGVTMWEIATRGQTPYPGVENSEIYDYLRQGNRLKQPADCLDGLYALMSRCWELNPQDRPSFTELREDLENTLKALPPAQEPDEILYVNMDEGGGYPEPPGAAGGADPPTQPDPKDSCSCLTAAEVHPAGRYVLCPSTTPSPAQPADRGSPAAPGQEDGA
As to the kind of experiment: AXL (human catalytic domain) Enzyme Activity Assay (IMAP fluorescence polarisation). In kind it is biochemical. The conditions noted are these: further data set (WW-001 through WW-169, XX-001 through XX-469, YY-001 through YY-016, ZZ-001 through ZZ-003); 150 μM ATP. The method in brief:
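Recombinant human AXL isoform 1 (aa473-894; final 15 nM) phosphorylated 100 nM fluorescein-CSK-tide with 150 μM ATP (KM) in HEPES pH 7.0/MgCl2/DTT buffer for 60 min at room temperature. IMAP fluorescence polarisation read after overnight binding; IC50 from 10-point 4-parameter logistic fits.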

With `CCN(CC)CCOc1cc(Nc2nc3cccc(-c4cnn(Cc5ccccc5)c4)n3n2)ccn1` [XX-387], the pIC50 (usually the IC50 on a negative log10 scale, so that one unit is a factor of ten) was 6.00 to 7.00.
`CC[C@@H](COc1ccc(Nc2nc3cccc(-c4ccc(OC)cc4)n3n2)cc1)N1CCCC1` [XX-388] had a pIC50 of at least 7.00.
To `CCN(CC)CCOc1cc(Nc2nc3cccc(-c4cnn(S(=O)(=O)CC(C)C)c4)n3n2)ccn1` [XX-389] belongs 6.00 to 7.00.
Turning to `COc1ccc(-c2cccc3nc(Nc4cccc(N(C)C(=O)C(C)N5CCCC5)c4)nn23)cc1` (stereo not shown) [XX-390], the pIC50 was at least 7.00.
Consider `COc1ccc(-c2cccc3nc(Nc4cccc(N(C)C(=O)C(C)N5CCOCC5)c4)nn23)cc1` (stereo not shown) [XX-391], for which the pIC50 is 6.00 to 7.00.
In the case of `Cc1ncsc1CNc1cccc(-c2cccc3nc(Nc4ccc(OCCN5CCCC5)cc4)nn23)c1` [XX-394] it was at least 7.00.
To `Cc1ccc(CNc2cccc(-c3cccc4nc(Nc5ccc(OCCN6CCCC6)cc5)nn34)c2)o1` [XX-395] belongs 6.00 to 7.00; to `Cn1nccc1CNc1cccc(-c2cccc3nc(Nc4ccc(OCCN5CCCC5)cc4)nn23)c1` [XX-396], at least 7.00; to `Cc1nc(CNc2cccc(-c3cccc4nc(Nc5ccc(OCCN6CCCC6)cc5)nn34)c2)c(C)o1` [XX-397], 6.00 to 7.00.
Compound `c1ccc(CNc2cccc(-c3cccc4nc(Nc5ccc(OCCN6CCCC6)cc5)nn34)c2)cc1` [XX-398] showed a pIC50 of 6.00 to 7.00.
To `CCCCNc1cccc(-c2cccc3nc(Nc4ccc(OCCN5CCCC5)cc4)nn23)c1` [XX-399] belongs 6.00 to 7.00.
In the case of `Cc1ccccc1COc1cccc(-c2cccc3nc(Nc4ccc(OCCN5CCCC5)cc4)nn23)c1` [XX-400] it was 5.00 to 6.00.
To `FC(F)(F)c1cccc(COc2cccc(-c3cccc4nc(Nc5ccc(OCCN6CCCC6)cc5)nn34)c2)c1` [XX-401] belongs 5.00 to 6.00; to `FC(F)(F)c1ccccc1COc1cccc(-c2cccc3nc(Nc4ccc(OCCN5CCCC5)cc4)nn23)c1` [XX-402], 5.00 to 6.00; to `CC(Oc1cccc(-c2cccc3nc(Nc4ccc(OCCN5CCCC5)cc4)nn23)c1)C(=O)Nc1ccccc1` (stereo not shown) [XX-403], 6.00 to 7.00.
In turn, `NC(=O)COc1cccc(-c2cccc3nc(Nc4ccc(OCCN5CCCC5)cc4)nn23)c1` [XX-404] gave a pIC50 of 5.00 to 6.00.
`CCCOc1cccc(-c2cccc3nc(Nc4ccc(OCCN5CCCC5)cc4)nn23)c1` [XX-405] showed a pIC50 of 5.00 to 6.00.
To `Cc1ccc(-c2nnc(COc3cccc(-c4cccc5nc(Nc6ccc(OCCN7CCCC7)cc6)nn45)c3)o2)cc1` [XX-406] belongs 5.00 to 6.00; to `Cn1nc(COc2cccc(-c3cccc4nc(Nc5ccc(OCCN6CCCC6)cc5)nn34)c2)c2ccccc21` [XX-407], 6.00 to 7.00.
To `COc1ccc(-c2cccc3nc(Nc4ccc(C(=O)NCCN5CCCC5)o4)nn23)cc1` [XX-408] belongs 6.00 to 7.00; to `COc1ccc(-c2cccc3nc(Nc4ccc(C(=O)NCCN5CCCC5)s4)nn23)cc1` [XX-409], 6.00 to 7.00; to `COc1ccc(-c2cccc3nc(Nc4ccc(OCC(O)CN5CCOCC5)cc4)nn23)cc1` (stereo not shown) [XX-410], 6.00 to 7.00.
In the case of `COc1ccc(-c2cccc3nc(Nc4ccc(OC[C@@H](c5ccccc5)N5CCCC5)cc4)nn23)cc1` [XX-411] it was 6.00 to 7.00; in that of `CCN(CC)CCOc1ccc(Nc2nc3cccc(-c4ccc(OC)cc4)n3n2)cc1F` [XX-412], 5.00 to 6.00.
Consider `COc1ccc(-c2cccc3nc(Nc4ccc(OC[C@H](c5ccccc5)N5CCCC5)cc4)nn23)cc1` [XX-413], for which the pIC50 was 6.00 to 7.00.
In the case of `CC[C@H](COc1ccc(Nc2nc3cccc(-c4ccc(OC)cc4)n3n2)cc1)N1CCCC1` [XX-414] it was at least 7.00.
In the case of `CCN(CC)CCOc1cc(Nc2nc3cccc(-c4ccc(OC)cc4)n3n2)ccc1C` [XX-415] it was 6.00 to 7.00; in that of `CCN(CC)CCOc1c(C)cc(Nc2nc3cccc(-c4ccc(OC)cc4)n3n2)cc1C` [XX-416], at least 7.00.
To `CCN(CC)CCOc1ccc(Nc2nc3cccc(-c4ccc(OC)cc4)n3n2)cc1Cl` [XX-417] belongs 6.00 to 7.00.
`CCN(CC)CCOc1cc(Nc2nc3cccc(-c4ccc(OC)cc4)n3n2)cc(F)c1F` [XX-418] gave a pIC50 of 6.00 to 7.00.
To `c1cc(-c2ccc3c(c2)OCCO3)n2nc(Nc3ccc(OCCCN4CCCCC4)cc3)nc2c1` [XX-419] belongs 6.00 to 7.00; to `CC(C)Oc1ccc(-c2cccc3nc(Nc4ccc(OCCCN5CCCCC5)cc4)nn23)cc1` [XX-420], 6.00 to 7.00; to `Cc1ccc(-c2cccc3nc(Nc4ccc(OCCCN5CCCCC5)cc4)nn23)cc1F` [XX-421], 6.00 to 7.00.
In the case of `c1ccc2sc(-c3cccc4nc(Nc5ccc(OCCCN6CCCCC6)cc5)nn34)cc2c1` [XX-422] it was 6.00 to 7.00; in that of `c1ccc(Cn2cc(-c3cccc4nc(Nc5ccc(OCCCN6CCCCC6)cc5)nn34)cn2)cc1` [XX-423], 6.00 to 7.00.
In turn, `Cc1csc(SCCn2cc(-c3cccc4nc(Nc5ccc(OCCN6CCCC6)cc5)nn34)cn2)n1` [XX-424] had a pIC50 of 6.00 to 7.00.
To `c1cc(-c2cnn(CCSc3nccs3)c2)n2nc(Nc3ccc(OCCN4CCCC4)cc3)nc2c1` [XX-425] belongs 6.00 to 7.00; to `c1csc(SCCn2cc(-c3cccc4nc(Nc5ccc(OCCN6CCCC6)cc5)nn34)cn2)c1` [XX-426], 6.00 to 7.00; to `c1coc(CSCCn2cc(-c3cccc4nc(Nc5ccc(OCCN6CCCC6)cc5)nn34)cn2)c1` [XX-427], 6.00 to 7.00.
In the case of `Cn1nnnc1SCCn1cc(-c2cccc3nc(Nc4ccc(OCCN5CCCC5)cc4)nn23)cn1` [XX-428] it was 5.00 to 6.00; in that of `Cn1cnnc1SCCn1cc(-c2cccc3nc(Nc4ccc(OCCN5CCCC5)cc4)nn23)cn1` [XX-429], 6.00 to 7.00.
For `Cc1nnc(SCCn2cc(-c3cccc4nc(Nc5ccc(OCCN6CCCC6)cc5)nn34)cn2)s1` [XX-430], the pIC50 is 6.00 to 7.00.
In the case of `Clc1cccc(SCCn2cc(-c3cccc4nc(Nc5ccc(OCCN6CCCC6)cc5)nn34)cn2)c1` [XX-431], the pIC50 is 6.00 to 7.00.
In the case of `O=C(Cn1cc(-c2cccc3nc(Nc4ccc(OCCN5CCCC5)cc4)nn23)cn1)Nc1ccccc1` [XX-432] it was 6.00 to 7.00; in that of `O=C(Cn1cc(-c2cccc3nc(Nc4ccc(OCCN5CCCC5)cc4)nn23)cn1)NCc1ccccc1` [XX-433], 6.00 to 7.00; in that of `CC(C)NC(=O)Cn1cc(-c2cccc3nc(Nc4ccc(OCCN5CCCC5)cc4)nn23)cn1` [XX-434], 5.00 to 6.00.
In the case of `O=C(Cn1cc(-c2cccc3nc(Nc4ccc(OCCN5CCCC5)cc4)nn23)cn1)Nc1cccc(Cl)c1` [XX-435] it was 6.00 to 7.00; in that of `O=C(Cn1cc(-c2cccc3nc(Nc4ccc(OCCN5CCCC5)cc4)nn23)cn1)NCCO` [XX-436], 6.00 to 7.00.
In turn, `O=C(Cn1cc(-c2cccc3nc(Nc4ccc(OCCN5CCCC5)cc4)nn23)cn1)NC1CC1` [XX-437] showed a pIC50 of 5.00 to 6.00.
In turn, `Cc1c(-c2cccc3nc(Nc4ccc(OCCN5CCCC5)cc4)nn23)cnn1-c1ccccc1` [XX-438] showed a pIC50 of 6.00 to 7.00.
Compound `Cn1ccc2cc(-c3cccc4nc(Nc5ccc(OCCN6CCCC6)cc5)nn34)ccc21` [XX-439] gave a pIC50 of 6.00 to 7.00.
In the case of `O=C(O)Cn1cc(-c2cccc3nc(Nc4ccc(OCCN5CCCC5)cc4)nn23)cn1` [XX-440, (4-{2-[4-(2-Pyrrolidin-1-yl-ethoxy)-phenylamino]-[1,2,4]triazolo[1,5-a]pyridin-5-yl}-pyrazol-1-yl)-acetic acid] it was 5.00 to 6.00.
